PubChem BioAssay (NCI)
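In this assay, cells in 96-well plates receive the compound at five concentrations for 48 hours. Endpoints are linearly interpolated between the surrounding concentrations. GI50 = concentration required for 50% inhibition of growth. TGI is the concentration that stops growth completely.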

Tests used:
Test in all cases: inhibition of tumour cell growth, NCI panel, 48 h
HCT-116 colon = tested on: HCT-116 colon
KM12 colon = tested on: KM12 colon
SF-295 CNS = tested on: SF-295 CNS
LOX IMVI melanoma = tested on: LOX IMVI melanoma
MALME-3M melanoma = tested on: MALME-3M melanoma
ACHN renal = tested on: ACHN renal
786-0 renal = tested on: 786-0 renal
SN12C renal = tested on: SN12C renal
SF-268 CNS = tested on: SF-268 CNS
SNB-19 CNS = tested on: SNB-19 CNS
OVCAR-8 ovarian = tested on: OVCAR-8 ovarian
PC-3 prostate = tested on: PC-3 prostate
OVCAR-5 ovarian = tested on: OVCAR-5 ovarian
HOP-62 NSCLC = tested on: HOP-62 NSCLC
A549 NSCLC = tested on: A549 NSCLC
HL-60(TB) leukemia = tested on: HL-60(TB) leukemia
CCRF-CEM leukemia = tested on: CCRF-CEM leukemia
TK-10 renal = tested on: TK-10 renal
NCI-H226 lung = tested on: NCI-H226 lung
NCI-H460 lung = tested on: NCI-H460 lung
U251 CNS = tested on: U251 CNS
SK-MEL-2 melanoma = tested on: SK-MEL-2 melanoma
EKVX NSCLC = tested on: EKVX NSCLC
NCI-H23 lung = tested on: NCI-H23 lung
RPMI-8226 leukemia = tested on: RPMI-8226 leukemia
HCT-15 colon = tested on: HCT-15 colon
OVCAR-4 ovarian = tested on: OVCAR-4 ovarian
COLO 205 colon = tested on: COLO 205 colon
HT29 colon = tested on: HT29 colon
SNB-75 CNS = tested on: SNB-75 CNS
MCF7 breast = tested on: MCF7 breast
UACC-62 melanoma = tested on: UACC-62 melanoma
RXF 393 renal = tested on: RXF 393 renal
IGROV1 ovarian = tested on: IGROV1 ovarian
T-47D breast = tested on: T-47D breast
SW-620 colon = tested on: SW-620 colon
HOP-92 NSCLC = tested on: HOP-92 NSCLC
UACC-257 melanoma = tested on: UACC-257 melanoma
NCI/ADR-RES ovarian = tested on: NCI/ADR-RES ovarian
OVCAR-3 ovarian = tested on: OVCAR-3 ovarian
NCI-H522 lung = tested on: NCI-H522 lung
HS 578T breast = tested on: HS 578T breast
SK-MEL-28 melanoma = tested on: SK-MEL-28 melanoma
MOLT-4 leukemia = tested on: MOLT-4 leukemia
SR leukemia = tested on: SR leukemia
UO-31 renal = tested on: UO-31 renal
SF-539 CNS = tested on: SF-539 CNS
SK-MEL-5 melanoma = tested on: SK-MEL-5 melanoma
BT-549 breast = tested on: BT-549 breast
A498 renal = tested on: A498 renal
SK-OV-3 ovarian = tested on: SK-OV-3 ovarian
CAKI-1 renal = tested on: CAKI-1 renal
MDA-MB-435 = tested on: MDA-MB-435
M14 melanoma = tested on: M14 melanoma
K-562 leukemia = tested on: K-562 leukemia
DU-145 prostate = tested on: DU-145 prostate
MDA-MB-231 breast = tested on: MDA-MB-231 breast

NCCNC1=CC(=O)c2nc3ccccc3c3ccnc1c23
GI50 (HCT-116 colon): 2.3 µM
TGI (HCT-116 colon): 14.8 µM
GI50 (KM12 colon): 3.67 µM
TGI (KM12 colon): 38.8 µM
GI50 (SF-295 CNS): 1.73 µM
TGI (SF-295 CNS): 7.31 µM
GI50 (LOX IMVI melanoma): 3.46 µM
TGI (LOX IMVI melanoma): 37.9 µM
GI50 (MALME-3M melanoma): 2.89 µM
TGI (MALME-3M melanoma): 13.4 µM
GI50 (ACHN renal): 1.91 µM
TGI (ACHN renal): 19.6 µM
GI50 (786-0 renal): 2.45 µM
TGI (786-0 renal): > 29.2 µM
GI50 (SN12C renal): 1.97 µM
TGI (SN12C renal): 14.4 µM
GI50 (SF-268 CNS): 3.63 µM
TGI (SF-268 CNS): 42.8 µM
GI50 (SNB-19 CNS): 1.79 µM
TGI (SNB-19 CNS): 8.33 µM
GI50 (OVCAR-8 ovarian): 3.83 µM
TGI (OVCAR-8 ovarian): > 100 µM
GI50 (PC-3 prostate): 4.09 µM
TGI (PC-3 prostate): 53.4 µM
GI50 (OVCAR-5 ovarian): 7.23 µM
TGI (OVCAR-5 ovarian): 40.3 µM
GI50 (HOP-62 NSCLC): 0.362 µM
TGI (HOP-62 NSCLC): 6.41 µM
GI50 (A549 NSCLC): 3.26 µM
TGI (A549 NSCLC): > 100 µM
GI50 (HL-60(TB) leukemia): 3.78 µM
TGI (HL-60(TB) leukemia): > 35.4 µM
GI50 (CCRF-CEM leukemia): 2.53 µM
TGI (CCRF-CEM leukemia): > 50.7 µM
GI50 (TK-10 renal): 25.9 µM
TGI (TK-10 renal): > 100 µM
GI50 (NCI-H226 lung): 2.08 µM
TGI (NCI-H226 lung): 20.1 µM
GI50 (NCI-H460 lung): 0.732 µM
TGI (NCI-H460 lung): 5.56 µM
GI50 (U251 CNS): 2.3 µM
TGI (U251 CNS): 22.7 µM
GI50 (SK-MEL-2 melanoma): 3.05 µM
TGI (SK-MEL-2 melanoma): 29.6 µM
GI50 (EKVX NSCLC): 16.7 µM
TGI (EKVX NSCLC): 53.5 µM
GI50 (NCI-H23 lung): 1.24 µM
TGI (NCI-H23 lung): 3.9 µM
GI50 (RPMI-8226 leukemia): 2.01 µM
TGI (RPMI-8226 leukemia): > 40.7 µM
GI50 (HCT-15 colon): 1.4 µM
TGI (HCT-15 colon): > 49.2 µM
GI50 (OVCAR-4 ovarian): 6.47 µM
TGI (OVCAR-4 ovarian): > 47.8 µM
GI50 (COLO 205 colon): 8.72 µM
TGI (COLO 205 colon): 29 µM
GI50 (HT29 colon): 22.6 µM
TGI (HT29 colon): > 73.6 µM
GI50 (SNB-75 CNS): 3.98 µM
TGI (SNB-75 CNS): > 29 µM
GI50 (MCF7 breast): 4.55 µM
TGI (MCF7 breast): > 50.1 µM
GI50 (UACC-62 melanoma): 1.06 µM
TGI (UACC-62 melanoma): 3.3 µM
GI50 (RXF 393 renal): 3.97 µM
TGI (RXF 393 renal): 55.7 µM
GI50 (IGROV1 ovarian): 1.58 µM
TGI (IGROV1 ovarian): 10.6 µM
GI50 (T-47D breast): 3.75 µM
TGI (T-47D breast): 20.3 µM
GI50 (SW-620 colon): 1.75 µM
TGI (SW-620 colon): 15.8 µM
GI50 (HOP-92 NSCLC): 16.4 µM
TGI (HOP-92 NSCLC): > 43.8 µM
GI50 (UACC-257 melanoma): 3.34 µM
TGI (UACC-257 melanoma): > 36.7 µM
GI50 (NCI/ADR-RES ovarian): 3.13 µM
TGI (NCI/ADR-RES ovarian): 24.9 µM
GI50 (OVCAR-3 ovarian): 2.63 µM
TGI (OVCAR-3 ovarian): 11.8 µM
GI50 (NCI-H522 lung): 1.53 µM
TGI (NCI-H522 lung): 4.4 µM
GI50 (HS 578T breast): 2.12 µM
TGI (HS 578T breast): > 23.5 µM
GI50 (SK-MEL-28 melanoma): 4.27 µM
TGI (SK-MEL-28 melanoma): > 80.5 µM
GI50 (MOLT-4 leukemia): 3.39 µM
TGI (MOLT-4 leukemia): > 36.9 µM
GI50 (SR leukemia): 0.374 µM
GI50 (UO-31 renal): 1.51 µM
TGI (UO-31 renal): > 20.5 µM
GI50 (SF-539 CNS): 1.53 µM
TGI (SF-539 CNS): 4.27 µM
GI50 (SK-MEL-5 melanoma): 1.59 µM
TGI (SK-MEL-5 melanoma): 4.19 µM
GI50 (BT-549 breast): 4.09 µM
TGI (BT-549 breast): 20.6 µM
GI50 (A498 renal): 9.55 µM
TGI (A498 renal): > 100 µM
GI50 (SK-OV-3 ovarian): 3.69 µM
TGI (SK-OV-3 ovarian): > 65.2 µM
GI50 (CAKI-1 renal): 0.534 µM
TGI (CAKI-1 renal): 2.96 µM
GI50 (MDA-MB-435): 1.42 µM
TGI (MDA-MB-435): 7.62 µM
GI50 (M14 melanoma): 1.48 µM
TGI (M14 melanoma): 4.75 µM
GI50 (K-562 leukemia): 1.4 µM
TGI (K-562 leukemia): > 24.3 µM
GI50 (DU-145 prostate): 2.11 µM
TGI (DU-145 prostate): 29.5 µM
GI50 (MDA-MB-231 breast): 9.02 µM
TGI (MDA-MB-231 breast): 41.9 µM
